The values that follow come from PubChem BioAssay (NCI).

Structures are written as SMILES.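 The compound was tested at five concentrations on cells cultured in 96-well plates, with a 48-hour exposure period. GI50 is the concentration that inhibits growth by half. At the TGI there is no net growth.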 Bounds are passed on as bounds.

Among the test systems are HCC-2998 colon; MCF7 breast; SK-MEL-5 melanoma; MDA-MB-435; UO-31 renal; SR leukemia; UACC-257 melanoma; SK-OV-3 ovarian; NCI-H522 lung; TK-10 renal.
What all share (assay): NCI-60 cell line screen, 48 h

Turning to `O=C(Nc1ccc(Cl)cc1)c1cc(S(=O)(=O)Nc2nnc(-c3ccccc3)c(-c3ccccc3)n2)c(SCc2ccccc2)cc1Cl`, the GI50 in the test on HCC-2998 colon was 17.6 µM; in the test on MCF7 breast, 29.6 µM; in the test on SK-MEL-5 melanoma it was 18.1 µM; with MDA-MB-435, 21.2 µM; in the test on UO-31 renal, 35.9 µM; with SR leukemia, 28.9 µM. The GI50 was 21.9 µM with UACC-257 melanoma, greater than 44.2 µM in the test on SK-OV-3 ovarian, 43.9 µM with NCI-H522 lung and 29.8 µM in the test on TK-10 renal. The TGI was 33.7 µM in the test with HCC-2998 colon; greater than 92 µM with MCF7 breast; 39.4 µM in the test with SK-MEL-5 melanoma; 61.5 µM in the test with MDA-MB-435; greater than 100 µM with UO-31 renal; greater than 57.3 µM in the test on SR leukemia. Besides, the TGI in the test on UACC-257 melanoma was 61.3 µM; in the test on SK-OV-3 ovarian, greater than 60.7 µM; in the test on NCI-H522 lung it was greater than 71.2 µM; in the test with TK-10 renal, greater than 64.4 µM.

For the molecule `CC(C)(C)OC(=O)CN1CCc2c(sc3ncnc(N/N=C/c4cccc5ccccc45)c23)C1`, the GI50 with HCC-2998 colon is 3.6 µM; with MCF7 breast, 0.923 µM; in the test with SK-MEL-5 melanoma, 4.08 µM; with MDA-MB-435 it was 2.1 µM; with UO-31 renal, 1.19 µM; with SR leukemia, 1.46 µM. Besides, the GI50 in the test on UACC-257 melanoma was 4.59 µM; in the test with SK-OV-3 ovarian it was 4.48 µM; with NCI-H522 lung, 2.16 µM; in the test on TK-10 renal, 5.34 µM. The TGI with HCC-2998 colon was found to be 11.7 µM; in the test with MCF7 breast it was 2.85 µM; with SK-MEL-5 melanoma, 8.28 µM; with MDA-MB-435, 9.83 µM; in the test on UO-31 renal, 5.87 µM; with SR leukemia it was 15.2 µM. In addition, the TGI with UACC-257 melanoma is 21.7 µM; in the test on SK-OV-3 ovarian it was 26.1 µM; in the test with NCI-H522 lung, 12.4 µM; in the test on TK-10 renal it was greater than 33.3 µM.

Regarding `O=c1c2ccccc2nc(-c2ccccc2)n1O`, the TGI in the test with HCC-2998 colon, in the test with MCF7 breast, in the test on SK-MEL-5 melanoma, with MDA-MB-435, with UO-31 renal and in the test with SR leukemia was greater than 100 µM throughout. Moreover, the TGI with UACC-257 melanoma, in the test with SK-OV-3 ovarian, in the test on NCI-H522 lung and in the test with TK-10 renal was greater than 100 µM each time.

For the molecule `COC(=O)C1(C2CC/C(C)=C/CC/C(C)=C/CC[C@@]3(C)O[C@@H]3C2)CC1` (stereo not given in full), the TGI with HCC-2998 colon was greater than 20.8 µM; with MCF7 breast, greater than 100 µM; with SK-MEL-5 melanoma, greater than 100 µM; in the test on MDA-MB-435 it was 98.3 µM; in the test with UO-31 renal, greater than 56.3 µM; in the test with SR leukemia it was greater than 51.9 µM. Also, the TGI in the test with UACC-257 melanoma, in the test on SK-OV-3 ovarian, in the test with NCI-H522 lung and in the test with TK-10 renal was greater than 100 µM in each case. Further, the GI50 with MCF7 breast is 51.1 µM; in the test with SK-MEL-5 melanoma it was 56.1 µM; in the test on MDA-MB-435, 32.1 µM; with UO-31 renal, 26.6 µM; in the test with SR leukemia, 12.4 µM; with UACC-257 melanoma it was greater than 83.7 µM. Besides, the GI50 in the test with SK-OV-3 ovarian was greater than 100 µM; in the test with NCI-H522 lung it was 50.4 µM; in the test on TK-10 renal it was greater than 59.6 µM.

For the molecule `CN1CCN(CCNc2ccc(CO)c3sc4ccccc4c(=O)c23)CC1`, the TGI worked out at 18.6 µM in the test with HCC-2998 colon; 8.77 µM in the test on MCF7 breast; 9.88 µM with SK-MEL-5 melanoma; 4.51 µM in the test on MDA-MB-435; 19.6 µM in the test with UO-31 renal; 19 µM with SR leukemia. The TGI with UACC-257 melanoma was found to be 9.84 µM; with SK-OV-3 ovarian, 14 µM; with NCI-H522 lung, 8.89 µM; with TK-10 renal, 20.1 µM. The GI50 in the test on MCF7 breast was 1.85 µM; in the test on MDA-MB-435, 1.98 µM; with SK-OV-3 ovarian, 3.17 µM.

For the molecule `CCN(CC)CCOc1ccc2c(c1)C(=O)c1cc(OCCN(CC)CC)ccc1-2`, the GI50 in the test on HCC-2998 colon is 10 µM; with MCF7 breast, 3.44 µM; in the test on SK-MEL-5 melanoma, 12.2 µM; in the test with MDA-MB-435 it was 12.9 µM; with UO-31 renal it was 3.52 µM; in the test with SR leukemia it was 2.69 µM. For the same molecule, the GI50 in the test with UACC-257 melanoma was 11.5 µM; in the test on SK-OV-3 ovarian, 16.4 µM; in the test with NCI-H522 lung it was 12.4 µM; in the test on TK-10 renal it was 19.2 µM. Besides, the TGI in the test with HCC-2998 colon is 22.6 µM; with MCF7 breast it was 14.8 µM; with SK-MEL-5 melanoma, 24.6 µM; with MDA-MB-435, 27.7 µM; in the test on UO-31 renal, 26.3 µM; in the test on SR leukemia, 6.59 µM. For the same molecule, the TGI is 24.9 µM with UACC-257 melanoma, 60.2 µM in the test on SK-OV-3 ovarian, 27.5 µM with NCI-H522 lung and 90.9 µM with TK-10 renal.

Take `CS(=O)(=O)CCn1c(=O)c(Oc2ccc(F)cc2F)cc2cnc(NC3CCOCC3)nc21`: the GI50 in the test on HCC-2998 colon, in the test with MCF7 breast, in the test on SK-MEL-5 melanoma, in the test on MDA-MB-435, in the test with UO-31 renal and with SR leukemia was greater than 25 µM each time. The GI50 in the test with UACC-257 melanoma, in the test on SK-OV-3 ovarian, in the test with NCI-H522 lung and with TK-10 renal was greater than 25 µM throughout. The TGI in the test with HCC-2998 colon, in the test on MCF7 breast, in the test with SK-MEL-5 melanoma, with MDA-MB-435, in the test on UO-31 renal and in the test with SR leukemia was greater than 25 µM each time. Also, the TGI in the test on UACC-257 melanoma, with SK-OV-3 ovarian, in the test with NCI-H522 lung and with TK-10 renal was greater than 25 µM in each case.

As to `C1=C(c2ccccc2)C(c2ccc(OCCN3CCCCC3)cc2)Oc2ccccc21` (stereo not given), the GI50 in the test on HCC-2998 colon was 1.72 µM; in the test on MCF7 breast, 0.441 µM; with SK-MEL-5 melanoma it was 1.78 µM; in the test on MDA-MB-435 it was 1.64 µM; in the test on UO-31 renal, 1.41 µM; with SR leukemia it was 1.93 µM. Moreover, the GI50 with UACC-257 melanoma is 2.02 µM; in the test on NCI-H522 lung, 1.59 µM; in the test with TK-10 renal, 1.69 µM. The TGI in the test with HCC-2998 colon was determined as 3.38 µM; in the test with MCF7 breast, 1.88 µM; in the test on SK-MEL-5 melanoma, 3.16 µM; with MDA-MB-435 it was 3.03 µM; in the test on UO-31 renal, 3.16 µM; in the test with SR leukemia it was 3.94 µM. The TGI worked out at 4.15 µM with UACC-257 melanoma, 3.37 µM in the test with NCI-H522 lung and 3.4 µM in the test on TK-10 renal.
